≈ marks a conversion by molar mass, not a printed value.
Legend:
Assay in all cases: MIC, CLSI broth microdilution, Test Example 2
Assay type in all cases: cell-based
E. coli SR01337 = settings: Escherichia coli, SR01337; TEM-1 ESBL producing strain; cation-adjusted Iso-Sensitest broth containing human Apo-transferrin; 5×10^5 cfu/mL; read-out: Minimum Inhibitory Concentration (MIC) E. coli SR01337
Description: (§1) Measurement of Minimum Inhibitory Concentration (MIC: μg/mL) was conducted according to CLSI (Clinical and Laboratory Standards Institute) method, and the amount of bacteria for inoculation was 5×10^5 cfu/mL, and cation-adjusted Iso-Sensitest broth containing human Apo-transferrin was used as a test medium, and the experiment was conducted using broth microdilution method.

P. aeruginosa SR01332 = settings: Pseudomonas aeruginosa, SR01332; VIM-11 MBL producing strain (carbapenem resistance strain); cation-adjusted Iso-Sensitest broth containing human Apo-transferrin; 5×10^5 cfu/mL; read-out: Minimum Inhibitory Concentration (MIC) P. aeruginosa SR01332
Description: as §1

E. coli ATCCBAA-196 = settings: Escherichia coli, ATCCBAA196; TEM-10 ESBL producing strain; cation-adjusted Iso-Sensitest broth containing human Apo-transferrin; 5×10^5 cfu/mL; read-out: Minimum Inhibitory Concentration (MIC) E. coli ATCC BAA-196
Description: as §1

E. cloacae NCTC13464 = settings: Enterobacter cloacae, NCTC13464; CTX-M group 9 ESBL producing strain; cation-adjusted Iso-Sensitest broth containing human Apo-transferrin; 5×10^5 cfu/mL; read-out: Minimum Inhibitory Concentration (MIC) E. cloacae NCTC 13464
Description: as §1

A. baumannii SR01331 = settings: Acinetobacter baumannii, SR01331; PER-1, OXA-23.51 ESBL- & OXA-type carbapenemase producing strain; cation-adjusted Iso-Sensitest broth containing human Apo-transferrin; 5×10^5 cfu/mL; read-out: Minimum Inhibitory Concentration (MIC) A. baumannii SR01331
Description: as §1

K. pneumoniae ATCC700603 = settings: Klebsiella pneumoniae, ATCC700603; SHV18 ESBL producing strain; cation-adjusted Iso-Sensitest broth containing human Apo-transferrin; 5×10^5 cfu/mL; read-out: Minimum Inhibitory Concentration (MIC) K. pneumoniae ATCC 700603
Description: as §1

P. aeruginosa SR01335 = settings: Pseudomonas aeruginosa, SR01335; VIM-1 like MBL producing strain (carbapenem resistance strain); cation-adjusted Iso-Sensitest broth containing human Apo-transferrin; 5×10^5 cfu/mL; read-out: Minimum Inhibitory Concentration (MIC) P. aeruginosa SR01335
Description: as §1

E. coli ATCCBAA-200 = settings: Escherichia coli, ATCCBAA200; SHV-4 ESBL producing strain; cation-adjusted Iso-Sensitest broth containing human Apo-transferrin; 5×10^5 cfu/mL; read-out: Minimum Inhibitory Concentration (MIC) E. coli ATCC BAA-200
Description: as §1

MIC (E. coli SR01337) [µg/mL] | MIC (P. aeruginosa SR01332) [µg/mL] | MIC (E. coli ATCCBAA-196) [µg/mL] | MIC (E. cloacae NCTC13464) [µg/mL] | MIC (A. baumannii SR01331) [µg/mL] | MIC (K. pneumoniae ATCC700603) [µg/mL] | MIC (P. aeruginosa SR01335) [µg/mL] | MIC (E. coli ATCCBAA-200) [µg/mL] | SMILES
0.063 | 2 | 0.063 | 0.25 | 1 | 0.25 | 2 | 0.25 | Nc1nc(/C(=N/O[C@@H](CC(=O)[O-])C(=O)[O-])C(=O)N[C@@H]2C(=O)N3C(c4nnn[n-]4)=C(C[N+]45CCC[C@H]4CN(C(=O)c4cc(O)c(O)c(F)c4)CC5)CS[C@H]23)cs1.[Na+].[Na+] (stereo partly drawn) [Compound I-63]
≤ 0.031 | 0.5 | 0.125 | ≤ 0.031 | 0.125 | 0.125 | 0.25 | 0.25 | CC(C)(O/N=C(\C(=O)N[C@@H]1C(=O)N2C(c3nnn[n-]3)=C(C[n+]3ccc4cc(O)c(O)cc4c3)CS[C@H]12)c1nsc(N)n1)C(=O)[O-].[Na+] [Compound I-113]
≤ 0.031 | 4 | ≤ 0.031 | 0.063 | 0.25 | ≤ 0.031 | 1 | 0.063 | CC(C)(O/N=C(\C(=O)N[C@@H]1C(=O)N2C(c3nnn[n-]3)=C(C[N+]3(CCNC(=O)c4ccc(O)c(O)c4Cl)CCCCC3)CS[C@H]12)c1nc(N)sc1Cl)C(=O)[O-].[Na+] [Compound I-32]
≤ 0.031 | 1 | 0.125 | 0.5 | 0.5 | 0.125 | 1 | 0.5 | CC(C)(O/N=C(\C(=O)N[C@@H]1C(=O)N2C(c3nnn[n-]3)=C(C[n+]3cccc4c3CCCN4C(=O)c3ccc(O)c(O)c3Cl)CS[C@H]12)c1nc(N)sc1Cl)C(=O)[O-].[Na+] [Compound I-28]
≤ 0.031 | 8 (≈ 10.1 µM) | 0.25 (≈ 0.316 µM) | 0.25 (≈ 0.316 µM) | 0.25 (≈ 0.316 µM) | 0.063 (≈ 0.0796 µM) | 1 (≈ 1.26 µM) | 0.25 (≈ 0.316 µM) | CC(C)(O/N=C(\C(=O)N[C@@H]1C(=O)N2C(c3nnn[nH]3)=C(C[N+]3(CCNC(=O)c4ccc(O)c(O)c4Cl)CCCCC3)CS[C@H]12)c1nsc(N)n1)C(=O)[O-] [Compound I-118]
≤ 0.031 | 4 (≈ 5.04 µM) | ≤ 0.031 | 0.125 (≈ 0.157 µM) | 0.5 (≈ 0.63 µM) | 0.125 (≈ 0.157 µM) | 2 (≈ 2.52 µM) | 0.063 (≈ 0.0793 µM) | CC(C)(O/N=C(\C(=O)N[C@@H]1C(=O)N2C(c3nnn[nH]3)=C(C[N+]3(CCNC(=O)c4cc(O)c(O)c(F)c4)CCCC3)CS[C@H]12)c1nc(N)sc1Cl)C(=O)[O-] [Compound I-104]
0.063 | 8 | 0.063 | 0.25 | 0.5 | 0.125 | 1 | 0.25 | Nc1nc(/C(=N/O[C@@H](CC(=O)[O-])C(=O)[O-])C(=O)N[C@@H]2C(=O)N3C(c4nnn[n-]4)=C(C[N+]45CCC[C@H]4CN(C(=O)c4ccc(O)c(O)c4Cl)CC5)CS[C@H]23)cs1.[Na+].[Na+] (stereo partly drawn) [Compound I-57]
0.25 (≈ 0.293 µM) | 4 (≈ 4.69 µM) | 0.125 (≈ 0.147 µM) | 0.5 (≈ 0.586 µM) | 0.25 (≈ 0.293 µM) | 0.5 (≈ 0.586 µM) | 1 (≈ 1.17 µM) | 0.5 (≈ 0.586 µM) | Nc1nc(/C(=N/O[C@@H](CC(=O)O)C(=O)[O-])C(=O)N[C@@H]2C(=O)N3C(c4nnn[nH]4)=C(C[N@+]45CCC[C@H]4CN(C(=O)c4ccc(O)c(O)c4Cl)CC5)CS[C@H]23)c(Cl)s1 [Compound I-97]

SMILES | MIC (E. coli SR01337) [µg/mL] | MIC (P. aeruginosa SR01332) [µg/mL] | MIC (E. coli ATCCBAA-196) [µg/mL] | MIC (E. cloacae NCTC13464) [µg/mL] | MIC (A. baumannii SR01331) [µg/mL] | MIC (K. pneumoniae ATCC700603) [µg/mL] | MIC (P. aeruginosa SR01335) [µg/mL] | MIC (E. coli ATCCBAA-200) [µg/mL]
Nc1nc(/C(=N/OC(C(=O)[O-])C(=O)[O-])C(=O)N[C@@H]2C(=O)N3C(C(=O)[O-])=C(C[N+]45CCC(CNC(=O)c6ccc(O)c(O)c6Cl)(CC4)CC5)CS[C@H]23)cs1.[Na+].[Na+] (stereo partly drawn) [Comparative Compound 2, reference compound] | > 32 | 32 | 0.5 | 0.5 | > 32 | 0.5 | 4 | 1
